This series has as its system Human STAT3 mRNA. As to the kind of experiment: Inhibition of human STAT3 mRNA levels in A549 cells, 75 nM, real-time PCR (Table 13). The series is classed as cell-based. The settings on record: 75 nM oligonucleotide with LIPOFECTIN, real-time PCR PPS 199, percent inhibition relative to untreated control cells, average of 2 experiments. Summed up:
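A549 cells at 65–75% confluency were transfected in duplicate with 75 nM oligonucleotide plus […] Lipofectin for 4–7 h at 37° C and harvested 16–24 h later. STAT3 mRNA was quantified by real-time RT-PCR with primer-probe set PPS 199 and normalized to RiboGreen total RNA. Inhibition is relative to untreated controls.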
A general note: Quantitative PCR measures a nucleic acid by following its amplification.

Oligonucleotides are written 5' to 3', each unit as a sugar letter and its base; * is a phosphorothioate linkage, no mark a phosphodiester; rarer units and linkages stand in square brackets, end groups in braces. Plain capitals give the bases only. e = 2'-O-(2-methoxyethyl) (MOE); [5mC] = 5-methylcytosine; d = 2'-deoxy (DNA)

Consider 43 substances from patent US20050074879A1, “Antisense oligonucleotide modulation of STAT3 expression” (priority 2000, published 2005).

Take “337334 (antisense e[5mC]*e[5mC]*e[5mC]*eA*eG*dA*dA*dG*dG*dA*dG*dA*dA*dG*d[5mC]*e[5mC]*e[5mC]*eT*eT*eG) [compound 337334]”: the “% Inhib (inhibition of human STAT 3 mRNA levels)” value (shortened to “% Inhib”) is 85%.

Consider “337335 (antisense eT*e[5mC]*e[5mC]*eA*eG*d[5mC]*d[5mC]*dA*dG*dA*d[5mC]*d[5mC]*d[5mC]*dA*dG*eA*eA*eG*eG*eA) [compound 337335]”, for which the “% Inhib” value came out at 86%.

“337336 (antisense eT*e[5mC]*eT*eT*eT*dG*d[5mC]*dT*dG*d[5mC]*dT*dT*dT*d[5mC]*dA*e[5mC]*eT*eG*eA*eA) [compound 337336]”: the “% Inhib” value is recorded as 79%.

For “337337 (antisense eA*eT*eG*eT*eT*dG*dT*dT*d[5mC]*dA*dG*d[5mC]*dT*dG*d[5mC]*eT*eG*e[5mC]*eT*eT) [compound 337337]”, the “% Inhib” value turned out to be 76%.

Consider “337338 (antisense eA*eT*eG*eA*e[5mC]*dA*dT*dG*dT*dT*dG*dT*dT*d[5mC]*dA*eG*e[5mC]*eT*eG*e[5mC]) [compound 337338]”, for which the “% Inhib” value worked out at 80%.

Turning to “337339 (antisense eA*eG*e[5mC]*eA*eA*dA*dT*dG*dA*d[5mC]*dA*dT*dG*dT*dT*eG*eT*eT*e[5mC]*eA) [compound 337339]”, the “% Inhib” value came to 84%.

As to “337340 (antisense eA*eT*eT*eT*e[5mC]*dA*dG*d[5mC]*dA*dA*dA*dT*dG*dA*d[5mC]*eA*eT*eG*eT*eT) [compound 337340]”, the “% Inhib” value worked out at 72%.

“337341 (antisense eT*eG*eA*eT*eG*dA*dT*dT*dT*d[5mC]*dA*dG*d[5mC]*dA*dA*eA*eT*eG*eA*e[5mC]) [compound 337341]”: the “% Inhib” value is 74%.

Consider “337342 (antisense eT*eT*eA*eT*eA*dG*d[5mC]*d[5mC]*d[5mC]*dA*dT*dG*dA*dT*dG*eA*eT*eT*eT*e[5mC]) [compound 337342]”, for which the “% Inhib” value was 81%.

For the substance “337343 (antisense eT*eG*eA*eT*e[5mC]*dT*dT*dA*dT*dA*dG*d[5mC]*d[5mC]*d[5mC]*dA*eT*eG*eA*eT*eG) [compound 337343]”, the “% Inhib” value amounted to 84%.

Regarding “337345 (antisense eG*eG*eT*eA*eG*d[5mC]*dA*dT*d[5mC]*d[5mC]*dA*dT*dG*dA*dT*e[5mC]*eT*eT*eA*eT) [compound 337345]”, the “% Inhib” value was 86%.

Consider “337346 (antisense eA*eA*eT*eG*eT*d[5mC]*dA*dG*dG*dA*dT*dA*dG*dA*dG*eA*eT*eA*eG*eA) [compound 337346]”, for which the “% Inhib” value came out at 55%.

With “337347 (antisense eG*e[5mC]*e[5mC]*eT*e[5mC]*d[5mC]*dT*d[5mC]*d[5mC]*dT*dT*dG*dG*dG*dA*eA*eT*eG*eT*e[5mC]) [compound 337347]”, the “% Inhib” value is given as 88%.

With “337349 (antisense eT*eA*e[5mC]*eT*eT*dT*d[5mC]*d[5mC]*dG*dA*dA*dT*dG*d[5mC]*d[5mC]*eT*e[5mC]*e[5mC]*eT*e[5mC]) [compound 337349]”, the “% Inhib” value stood at 65%.

With “337350 (antisense eG*eA*e[5mC]*eA*eA*dT*dA*d[5mC]*dT*dT*dT*d[5mC]*d[5mC]*dG*dA*eA*eT*eG*e[5mC]*e[5mC]) [compound 337350]”, the “% Inhib” value was determined as 84%.

On to “337351 (antisense e[5mC]*eT*eA*e[5mC]*e[5mC]*dT*dG*dG*dG*dT*d[5mC]*dA*dG*d[5mC]*dT*eT*e[5mC]*eA*eG*eG) [compound 337351]”, for which the “% Inhib” value is on record as 74%.

“337352 (antisense eA*eT*eA*eA*eA*d[5mC]*dT*dT*dG*dG*dT*d[5mC]*dT*dT*d[5mC]*eA*eG*eG*eT*eA) [compound 337352]”: the “% Inhib” value was determined as 80%.

Take “337353 (antisense eG*eT*e[5mC]*eG*eT*dT*dG*dG*dT*dG*dT*d[5mC]*dA*d[5mC]*dA*e[5mC]*eA*eG*eA*eT) [compound 337353]”: the “% Inhib” value came to 81%.

“337354 (antisense eT*eG*e[5mC]*eA*eG*dG*dT*d[5mC]*dG*dT*dT*dG*dG*dT*dG*eT*e[5mC]*eA*e[5mC]*eA) [compound 337354]”: the “% Inhib” value was determined as 62%.

As to “337355 (antisense eA*eT*eT*eG*e[5mC]*dT*dG*d[5mC]*dA*dG*dG*dT*d[5mC]*dG*dT*eT*eG*eG*eT*eG) [compound 337355]”, the “% Inhib” value is 61%.

“337356 (antisense eA*eT*eG*eG*eT*dA*dT*dT*dG*d[5mC]*dT*dG*d[5mC]*dA*dG*eG*eT*e[5mC]*eG*eT) [compound 337356]”: the “% Inhib” value was 75%.

Take “337357 (antisense eG*eG*eT*e[5mC]*eA*dA*dT*dG*dG*dT*dA*dT*dT*dG*d[5mC]*eT*eG*e[5mC]*eA*eG) [compound 337357]”: the “% Inhib” value is on record as 71%.

As to “337358 (antisense eG*eA*e[5mC]*eA*eT*d[5mC]*dG*dG*d[5mC]*dA*dG*dG*dT*d[5mC]*dA*eA*eT*eG*eG*eT) [compound 337358]”, the “% Inhib” value stood at 77%.

Consider “337359 (antisense e[5mC]*eA*eA*eT*eG*dA*dA*dT*d[5mC]*dT*dA*dA*dA*dG*dT*eG*e[5mC]*eG*eG*eG) [compound 337359]”, for which the “% Inhib” value worked out at 57%.

In the case of “337360 (antisense eT*eG*e[5mC]*eA*eT*d[5mC]*dA*dA*dT*dG*dA*dA*dT*d[5mC]*dT*eA*eA*eA*eG*eT) [compound 337360]”, the “% Inhib” value is 71%.

Regarding “337361 (antisense e[5mC]*eA*eA*eA*e[5mC]*dT*dG*d[5mC]*dA*dT*d[5mC]*dA*dA*dT*dG*eA*eA*eT*e[5mC]*eT) [compound 337361]”, the “% Inhib” value is 61%.

Consider “337362 (antisense eA*eT*eT*eT*e[5mC]*d[5mC]*dA*dA*dA*d[5mC]*dT*dG*d[5mC]*dA*dT*e[5mC]*eA*eA*eT*eG) [compound 337362]”, for which the “% Inhib” value was found to be 69%.

With “337363 (antisense eA*eA*e[5mC]*eT*eG*d[5mC]*d[5mC]*d[5mC]*dT*d[5mC]*d[5mC]*dT*dG*d[5mC]*dT*eG*eA*eG*eG*eG) [compound 337363]”, the “% Inhib” value is listed as 63%.

Take “337364 (antisense eG*eG*eT*eG*eA*dG*dG*dG*dA*d[5mC]*dT*d[5mC]*dA*dA*dA*e[5mC]*eT*eG*e[5mC]*e[5mC]) [compound 337364]”: the “% Inhib” value turned out to be 70%.

Turning to “337365 (antisense e[5mC]*eA*eG*eT*e[5mC]*dG*dT*dA*dT*d[5mC]*dT*dT*dT*d[5mC]*dT*eG*e[5mC]*eA*eG*e[5mC]) [compound 337365]”, the “% Inhib” value is reported as 84%.

For the substance “337366 (antisense eA*eG*eA*eT*eA*dG*d[5mC]*dA*dG*dA*dA*dG*dT*dA*dG*eG*eA*eG*eA*eT) [compound 337366]”, the “% Inhib” value was found to be 66%.

As for “337367 (antisense eA*eA*eA*eG*eT*dG*d[5mC]*d[5mC]*d[5mC]*dA*dG*dA*dT*dT*dG*e[5mC]*eT*e[5mC]*eA*eA) [compound 337367]”, the “% Inhib” value stood at 82%.

Take “337368 (antisense eT*eT*eT*eT*eT*dA*dA*dA*dA*dG*dT*dG*d[5mC]*d[5mC]*d[5mC]*eA*eG*eA*eT*eT) [compound 337368]”: the “% Inhib” value is on record as 59%.

In the case of “337369 (antisense e[5mC]*eA*eG*eA*eT*d[5mC]*dA*d[5mC]*d[5mC]*d[5mC]*dA*d[5mC]*dA*dT*dT*e[5mC]*eA*e[5mC]*eT*e[5mC]) [compound 337369]”, the “% Inhib” value came out at 88%.

Regarding “337370 (antisense eT*eG*e[5mC]*eA*eT*dT*dT*dA*dG*dA*dT*dA*dA*dA*dA*eG*e[5mC]*eA*eG*eA) [compound 337370]”, the “% Inhib” value was 78%.

Regarding “337371 (antisense eG*eA*eA*e[5mC]*eA*d[5mC]*dA*dT*d[5mC]*d[5mC]*dT*dT*dA*dT*dT*eT*eG*e[5mC]*eA*eT) [compound 337371]”, the “% Inhib” value is 76%.

In the case of “337372 (antisense eA*eT*e[5mC]*eA*eT*dG*dG*dG*dT*d[5mC]*dT*d[5mC]*dA*dG*dA*eG*eA*eA*e[5mC]*eA) [compound 337372]”, the “% Inhib” value worked out at 88%.

Regarding “337373 (antisense e[5mC]*eA*e[5mC]*eA*eT*d[5mC]*d[5mC]*d[5mC]*d[5mC]*dT*dG*dA*dT*d[5mC]*dA*eT*eG*eG*eG*eT) [compound 337373]”, the “% Inhib” value is listed as 70%.

Turning to “337374 (antisense eA*eG*eA*e[5mC]*eA*dT*dT*dT*d[5mC]*d[5mC]*dT*dT*dT*dT*dT*e[5mC]*eT*e[5mC]*e[5mC]*e[5mC]) [compound 337374]”, the “% Inhib” value is 67%.

For the substance “337375 (antisense eA*e[5mC]*e[5mC]*eA*eG*dG*dA*dG*dG*d[5mC]*dA*d[5mC]*dT*dT*dG*eT*e[5mC]*eT*eA*eA) [compound 337375]”, the “% Inhib” value is 89%.

With “337376 (antisense eG*e[5mC]*eA*eG*eG*d[5mC]*dA*d[5mC]*d[5mC]*dA*dG*dG*dA*dG*dG*e[5mC]*eA*e[5mC]*eT*eT) [compound 337376]”, the “% Inhib” value is recorded as 83%.

Consider “337377 (antisense eG*e[5mC]*eT*eT*eA*d[5mC]*dA*dG*dA*dA*dA*d[5mC]*dA*dG*dG*e[5mC]*eA*eG*eA*eA) [compound 337377]”, for which the “% Inhib” value was 78%.

On to “337378 (antisense eA*eG*eG*eT*eG*dG*d[5mC]*d[5mC]*dT*dG*dT*dG*dG*d[5mC]*dA*eT*eT*eT*eG*e[5mC]) [compound 337378]”, for which the “% Inhib” value amounted to 16%.
